Consider one compound from publication PMC10348910, “Epigenetic reprogramming of cell cycle genes by ACK1 promotes breast cancer resistance to CDK4/6 inhibitor” (Oncogene, 2023).

This data set deals with MDA-MB-468 xenografts. Kind of data set: MDA-MB-468 xenograft in mammary fat pad. The class given is in vivo, female SCID mice. The method, then: To validate these findings in breast tumors, MDA-MB-468 cells were injected in female SCID mice. Once palpable tumors were formed (5 weeks), mice were treated with vehicle (6% captisol), palbociclib (80 mg/Kg of body weight), (R)-9b (36 mg/Kg of body weight) by oral route, or (R)-9b (24 mg/Kg of body weight) by subcutaneous injection, five times a week.
Fig. 7 ACK1 inhibitor overcomes palbociclib-resistant breast cancer growth and metastasis. A 3 × 10^6 MDA-MB-468 cells were injected in the 4th inguinal mammary fat pad of female SCID mice. Once the tumors were palpable, the mice were treated with either vehicle (Captisol; n = 7), Palbociclib at 80 mg/kg (n = 6), or (R)-9b at 36 mg/Kg (n = 6) orally. In addition, mice were injected with (R)-9b at 24 mg/Kg (n = 7) subcutaneously. Mice were treated five times a week, for 22 days. B, C The tumors were harvested and photographed, and the weights were recorded. D Vehicle or (R)-9b treated breast cancer cells were subjected to ChIP using pY88-H4 antibody, followed by qPCR for CXCR4 gene. E CXCR4 mRNA transcript levels in vehicle or (R)-9b treated MDA-MB-231 cells. 18S rRNA was used as housekeeping gene. F MDA-MB-231 cells were transfected with ACK1 or scrambled siRNA, followed by qRT-PCR to determine CXCR4 mRNA transcript levels. G Representative lung metastatic deposits of MDA-MB-231 cells injected via the tail veins in female SCID mice, treated with either vehicle or 24 mg/Kg (R)-9b orally. H Graphical quantitation of lung metastatic deposit. I and J 5 × 10^5 luciferase expressing 4T1 cells were injected into 4th inguinal mammary fat pad of female BALB/c mice. Once the tumors were palpable, mice were treated with either vehicle or (R)-9b at 24 mg/Kg (n = 3, each) subcutaneously for 2 weeks, five times a week. The metastases were assessed using IVIS. Data are represented as the mean ± SEM. *p < 0.05; **p < 0.01; ***p < 0.001. For (A, C–F, I), p values were calculated using unpaired two-tailed Student’s t test.
All animal experiments were performed using the standards for humane care in accordance with the NIH Guide for the Care and Use of Laboratory Animals. Mice were obtained from Charles River Laboratories and experiments were performed according to IACUC protocols (IACUC # 20180259) approved in writing by Washington University in St. Louis Department of Comparative Medicine (DCM). 1.5 × 10^6 Cal-148 or MCF7, or 3 × 10^6 MDA-MB-468 cells were suspended in 200 µl of PBS with 50% matrigel (BD Biosciences) and were implanted subcutaneously into the mammary fat pad (between fourth and fifth inguinal) of female SCID C.B17 mice (n = 8 per group). Once the tumors were palpable (about 4–5 weeks), mice were randomly chosen for subcutaneous injection (Cal-148 and MCF7; 24 mg/Kg body weight) or given oral gavage with (R)-9b (MCF7; 36 mg/Kg body weight) resuspended in 6% Captisol (or 6% Captisol in PBS as vehicle), five times a week, for 4–5 weeks. Tumor volumes were measured twice a week using calipers. At the end of the study, all mice were humanely euthanized, tumors extracted and weighed.

For `CN1CCN(c2ccc(Nc3ncc(Cl)c(NC[C@H]4CCCO4)n3)cc2)CC1` [(R)-9b], the tumor weights entry ((R)-9b 36 mg/Kg oral or 24 mg/Kg subcutaneous, end of experiment) was “significant reduction in tumor weights”. Where the note is “palbociclib 80 mg/Kg oral, (R)-9b 36 mg/Kg oral or 24 mg/Kg subcutaneous, five times a week, 3 weeks”, the xenograft tumor growth entry is recorded as “compromised tumors growth”. Besides, where the note is “palbociclib 80 mg/Kg, (R)-9b 36 mg/Kg oral or 24 mg/Kg subcutaneous”, the “weights of the mice” value was “did not exhibit significant loss of weight”. Further, the “histology (H&E) of heart, spleen, kidneys and livers” value (palbociclib 80 mg/Kg, (R)-9b oral and subcutaneous) is “did not reveal histological abnormalities”.
